MIC, MCC and IC50 data for 16 compounds are collected here from ChEMBL document CHEMBL4304836, “N-Trifluoromethylthiolated Sulfonimidamides and Sulfoximines: Anti-microbial, Anti-mycobacterial, and Cytotoxic Activity” (ACS Med Chem Lett, 2019).

What is called MIC is the least concentration at which growth counts as inhibited. As usually defined, the IC50 is the midpoint of a concentration-inhibition curve. Higher therefore signals weaker potency.

In test [1] the test system is Mycobacterium tuberculosis. The experiment in a line: Antimycobacterial activity against Mycobacterium tuberculosis H37Rv assessed as reduction in bacterial cell growth incubated for 14 days by broth dilution method. Type of test: functional. The note with it: 336 h. For orientation: In broth dilution the organism is exposed to a series of concentrations in liquid medium.

The subject of test [2] is Mycobacteroides abscessus. As to the kind of experiment: Antimycobacterial activity against Mycobacterium abscessus ATCC 19977 assessed as reduction in bacterial cell growth incubated for 3 days by broth dilution method. Type of test: functional. The following applies: ATCC 19977, 72 h.
For test [3], the system named is Pseudomonas aeruginosa. As to the kind of experiment: Antibacterial activity against Pseudomonas aeruginosa ATCC 27853 assessed as reduction in bacterial cell growth incubated for 24 hrs by two fold serial dilution. Type of test: functional. The note with it: ATCC 27853, 24 h.
Test [4] relates to Bacillus subtilis. As to the kind of experiment: Antibacterial activity against Bacillus subtilis ATCC 6051 assessed as reduction in bacterial cell growth incubated for 24 hrs by two fold serial dilution. Type of test: functional. The following applies: ATCC 6051, 24 h.
Test [5] has as its system Escherichia coli. The experiment in a line: Antibacterial activity against Escherichia coli ATCC 25922 assessed as reduction in bacterial cell growth incubated for 24 hrs by two fold serial dilution. Type of test: functional. The note with it: ATCC 25922, 24 h.
Test [6] relates to Staphylococcus aureus. The experiment in a line: Antibacterial activity against Staphylococcus aureus ATCC 25923 assessed as reduction in bacterial cell growth incubated for 24 hrs by two fold serial dilution. Type of test: functional. The following applies: ATCC 25923, 24 h.
Test [7] has as its system HepG2. The experiment in a line: Cytotoxicity against human HepG2 cells assessed as cell membrane leakage by measuring LDH released incubated for 6 hrs by spectrophotometry. Format: functional. The note with it: HepG2, 6 h.
In test [8] the test system is HepG2. The experiment in a line: Cytotoxicity against human HepG2 cells incubated for 6 hrs by MTT assay. Type of test: functional, cell-based. The following applies: HepG2, 6 h. (Tetrazolium dyes change colour on reduction, which living cells bring about.)

SMILES strings stand for the structures. In brackets after ≈: the same amount, converted by molar mass.

As for `N=S(=O)(c1ccccc1)N1CCOCC1` (configuration not stated), the MIC in test [1] and in test [2] was above 64 µg/mL each time.
`O=S(=NSC(F)(F)F)(c1ccccc1)N1CCOCC1` (configuration not stated): the MIC in test [3] was determined as 256 µg/mL (≈ 784 µM); in test [4], 32 µg/mL (≈ 98 µM); in test [5], 128 µg/mL (≈ 392 µM); in test [6], 32 µg/mL (≈ 98 µM).
Regarding `O=[N+]([O-])c1ccc(S(=O)(=NSC(F)(F)F)N2CCCC2)cc1` (configuration not stated), the MIC in test [1] is 16 to 32 µg/mL (≈ 45 to 90 µM); in test [3], above 512 µg/mL; in test [4] it was 64 µg/mL (≈ 180 µM); in test [5], above 512 µg/mL; in test [6], 32 µg/mL (≈ 90 µM); in test [2], 16 to 32 µg/mL (≈ 45 to 90 µM).
In the case of `O=S(=NC(F)(F)F)(c1ccccc1)c1ccccc1`, in test [7], the MCC was found to be 200 µg/mL. Moreover, the MIC in test [1] was above 64 µg/mL; in test [3], above 512 µg/mL; in test [4] it was above 512 µg/mL; in test [5], above 512 µg/mL; in test [6], above 512 µg/mL. The IC50 in test [8] came to 200 µg/mL (≈ 701 µM).
Take `Cc1ccc(S(=O)(=NSC(F)(F)F)N2CCCC2)cc1` (configuration not stated): the MIC in test [3] is above 512 µg/mL; in test [4], 32 µg/mL (≈ 98.6 µM); in test [5], above 512 µg/mL; in test [6] it was 64 µg/mL (≈ 197 µM).
Turning to `N=S(=O)(c1ccc([N+](=O)[O-])cc1)N1CCCC1` (configuration not stated), the MIC in test [1] and in test [2] was above 64 µg/mL in each case.
For `CS(=O)(=NC(F)(F)F)c1ccccc1` (configuration not stated), the minimal inhibitory concentration (MIC) is above 64 µg/mL in test [1]; above 512 µg/mL in test [3]; above 512 µg/mL in test [4]; above 512 µg/mL in test [5]; above 512 µg/mL in test [6]. The IC50 in test [8] was above 200 µg/mL.
As to `O=S(=NSC(F)(F)F)(c1ccccc1)N1CCCC1` (configuration not stated), the MCC in test [7] worked out at 0.1 µg/mL. Also, the MIC in test [1] was 4 to 8 µg/mL (≈ 12.9 to 25.8 µM); in test [3], 512 µg/mL (≈ 1650 µM); in test [4], 8 µg/mL (≈ 25.8 µM); in test [5], 128 µg/mL (≈ 412 µM); in test [6] it was 32 µg/mL (≈ 103 µM); in test [2] it was above 64 µg/mL. The same compound registered an IC50 in test [8] of 15 µg/mL (≈ 48.3 µM).
On to `O=[N+]([O-])c1ccc(S(=O)(=NSC(F)(F)F)N2CCOCC2)cc1` (configuration not stated), for which the MIC in test [1] was 16 to 32 µg/mL (≈ 43.1 to 86.2 µM); in test [3], 256 µg/mL (≈ 689 µM); in test [4], 128 to 256 µg/mL (≈ 345 to 689 µM); in test [5], 128 to 256 µg/mL (≈ 345 to 689 µM); in test [6], 128 to 256 µg/mL (≈ 345 to 689 µM); in test [2], 32 to 64 µg/mL (≈ 86.2 to 172 µM).
On to `O=S(=NSC(F)(F)F)(c1ccccc1)c1ccccc1`, for which the MCC in test [7] came out at 1 µg/mL. In addition, the MIC in test [1] is 4 to 8 µg/mL (≈ 12.6 to 25.2 µM); in test [3], 256 µg/mL (≈ 807 µM); in test [4], 16 µg/mL (≈ 50.4 µM); in test [5], 256 µg/mL (≈ 807 µM); in test [6] it was 32 µg/mL (≈ 101 µM); in test [2], above 64 µg/mL. Half-maximal inhibition in test [8] (IC50) was put at 90 µg/mL (≈ 284 µM).
As to `O=[N+]([O-])c1ccc(S(=O)(=NSC(F)(F)F)N2CCCCC2)cc1` (configuration not stated), the MIC in test [1] was above 64 µg/mL; in test [4] it was 64 µg/mL (≈ 173 µM); in test [6] it was 32 µg/mL (≈ 86.6 µM); in test [2], 32 to 64 µg/mL (≈ 86.6 to 173 µM).
On to `CS(=N)(=O)c1ccccc1` (configuration not stated), for which the MCC in test [7] turned out to be 100 µg/mL. Also, the MIC in test [3], in test [4], in test [5] and in test [6] was above 512 µg/mL throughout. Also, in test [8], the IC50 is above 100 µg/mL.
Turning to `CCN(CC)S(=O)(=NSC(F)(F)F)c1ccc([N+](=O)[O-])cc1` (configuration not stated), the MIC was 16 to 32 µg/mL (≈ 44.8 to 89.5 µM) in test [1]; above 512 µg/mL in test [3]; 16 to 32 µg/mL (≈ 44.8 to 89.5 µM) in test [4]; 32 to 64 µg/mL (≈ 89.5 to 179 µM) in test [6]; 16 to 32 µg/mL (≈ 44.8 to 89.5 µM) in test [2].
For `CS(=O)(=NSC(F)(F)F)c1ccccc1` (configuration not stated), in test [7], the MCC came out at 0.1 µg/mL. Also, the MIC in test [1] was 4 to 8 µg/mL (≈ 15.7 to 31.3 µM); in test [3], 128 µg/mL (≈ 501 µM); in test [4] it was 16 µg/mL (≈ 62.7 µM); in test [5] it was 16 µg/mL (≈ 62.7 µM); in test [6] it was 16 µg/mL (≈ 62.7 µM); in test [2] it was above 64 µg/mL. This compound also had an IC50 in test [8] of 15 µg/mL (≈ 58.8 µM).
`Cc1ccc(S(=O)(=NSC(F)(F)F)N2CCCCC2)cc1` (configuration not stated): the MCC in test [7] is 0.1 µg/mL. Besides, the values for the minimum inhibitory concentration (MIC) in test [1] and in test [2] were 4 to 8 µg/mL (≈ 11.8 to 23.6 µM) and above 64 µg/mL, respectively. Also, the IC50 in test [8] amounted to 65 µg/mL (≈ 192 µM).
On to `Cc1ccc(S(=O)(=NSC(F)(F)F)N2CCOCC2)cc1` (configuration not stated), for which the figures for the MIC in test [1] and in test [2] were 8 to 16 µg/mL (≈ 23.5 to 47 µM) and 16 to 32 µg/mL (≈ 47 to 94 µM), respectively.
